The record followed here is patent publication US7041698B2, “Hepatitis C virus inhibitors” (Bristol-Myers Squibb Company, priority 2002, dated 2006).

SMILES strings stand for the structures.

The target in assay [1] is T1, human sputum elastase (HS) (Homo sapiens, UniProt P08246).
T1 construct: purchased Sigma
T1 sequence (P08246 30-267): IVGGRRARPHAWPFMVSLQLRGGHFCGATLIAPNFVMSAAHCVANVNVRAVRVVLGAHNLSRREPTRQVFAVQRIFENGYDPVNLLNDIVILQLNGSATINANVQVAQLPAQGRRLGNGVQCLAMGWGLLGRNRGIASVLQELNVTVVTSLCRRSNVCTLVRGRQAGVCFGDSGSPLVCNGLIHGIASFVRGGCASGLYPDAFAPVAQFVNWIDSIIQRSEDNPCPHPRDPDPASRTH
In words: Specificity assay, human sputum elastase. It is filed as biochemical. To be noted: 2 hr pre-incubation at RT. The protocol:
The specificities of compounds of the present invention were determined against a variety of serine proteases: human sputum elastase (HS), porcine pancreatic elastase (PPE) and human pancreatic chymotrypsin and one cysteine protease: human liver cathepsin B. In all cases a 96-well plate format protocol using calorimetric p-nitroaniline (pNA) substrate specific for each enzyme was used as described previously (Patent WO 00/09543) with some modifications to the serine protease assays. All enzymes were purchased from Sigma while the substrates were from Bachem.
Each assay included a 2 hr enzyme-inhibitor pre-incubation at RT followed by addition of substrate and hydrolysis to ˜30% conversion as measured on a Spectramax Pro microplate reader. Compound concentrations varied from 100 to 0.4 μM depending on their potency. […]
The percentage of inhibition was calculated using the formula: [1-((UVinh−UVblank)/(UVctl−UVblank))]×100 […]

A further assay deals with T2, NS3/4A H77C strain (Hepatitis C virus genotype 1a, UniProt P27958, C1454S).
T2 construct: DNA encoding the recombinant HCV NS3/4A protease complex (amino acids 1027 to 1711) for these strains; His tag (inferred from pET21b vector and Ni-NTA purification); made in house; host or cells: Escherichia coli BL21 (DE3)
T2 sequence (P27958 1027-1657 C1454S): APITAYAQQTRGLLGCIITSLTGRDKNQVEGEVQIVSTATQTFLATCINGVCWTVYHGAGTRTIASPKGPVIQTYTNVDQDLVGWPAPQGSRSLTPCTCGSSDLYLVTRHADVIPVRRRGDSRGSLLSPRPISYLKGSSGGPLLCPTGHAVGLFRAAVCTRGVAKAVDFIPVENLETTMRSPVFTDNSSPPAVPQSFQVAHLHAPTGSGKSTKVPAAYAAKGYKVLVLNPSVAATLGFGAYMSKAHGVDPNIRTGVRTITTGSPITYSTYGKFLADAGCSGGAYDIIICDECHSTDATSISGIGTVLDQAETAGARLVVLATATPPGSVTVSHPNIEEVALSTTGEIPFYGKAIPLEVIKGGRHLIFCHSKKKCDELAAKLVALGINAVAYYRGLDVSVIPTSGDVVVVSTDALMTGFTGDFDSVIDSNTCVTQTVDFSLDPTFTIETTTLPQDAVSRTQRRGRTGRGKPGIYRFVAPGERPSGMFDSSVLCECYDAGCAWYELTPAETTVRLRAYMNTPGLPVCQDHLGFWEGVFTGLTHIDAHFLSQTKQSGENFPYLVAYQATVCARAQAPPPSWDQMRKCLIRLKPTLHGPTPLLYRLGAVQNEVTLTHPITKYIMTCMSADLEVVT
T2 sequence (P27958 1658-1714 partner, looked up, stated change not applied): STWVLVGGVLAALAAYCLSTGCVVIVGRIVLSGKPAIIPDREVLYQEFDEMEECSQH
Nature of the assay: Recombinant HCV NS3/4A protease complex FRET peptide assay, H77C strain. The format is biochemical, HCV genotype 1a. From the text:
Recombinant HCV NS3/4A Protease Complex FRET Peptide Assay
The purpose of this in vitro assay was to measure the inhibition of HCV NS3 protease complexes, derived from the BMS, H77C or J416S strains, as described below, by compounds of the present invention. This assay provides an indication of how effective compounds of the present invention would be in inhibiting HCV proteolytic activity.
Serum from an HCV-infected patient was obtained from Dr. T. Wright, San Francisco Hospital. An engineered full-length cDNA (compliment deoxyribonucleic acid) template of the HCV genome (BMS strain) was constructed from DNA fragments obtained by reverse transcription-PCR (RT-PCR) of serum RNA (ribonucleic acid) and using primers selected on the basis of homology between other genotype 1a strains. From the determination of the entire genome sequence, a genotype 1a was assigned to the HCV isolate according to the classification of Simmonds et al. (See P Simmonds, K A Rose, S Graham, S W Chan, F McOmish, B C Dow, E A Follett, P L Yap and H Marsden, J. Clin. Microbiol., 31(6), 1493–1503 (1993)). […]

The IC50 is the point on the concentration scale where inhibition reaches its midpoint. As for `C=CC1C[C@]1(NC(=O)[C@@H]1C[C@@H](OC(=O)Nc2ccccc2-c2ccccc2)CN1C(=O)[C@@H](NC(=O)OC(C)(C)C)C(C)(C)C)C(=O)NS(=O)(=O)C1CC1` (stereo partly drawn) [Compound 8, BocNH-P3(t-BuGly)-P2(Hyp(O—CO(NH-biphen-2-yl)))-P1(1R,2S VinylAcca)—CONHSO2Cyclopropane], the IC50 in assay [1] is > 100000 nM; at NS3/4A H77C strain, 11 nM.
